From ChEMBL document CHEMBL4265906, “Synthesis and biological evaluation of isoxazolyl-sulfonamides: A non-cytotoxic scaffold active against Trypanosoma cruzi, Leishmania amazonensis and Herpes Simplex Virus” (Bioorg Med Chem Lett, 2018)
pIC50: −log10 of the molar value. Activity calls are given as the source filed them. The rule behind the calls is not given here.

How the values were obtained:
Human alphaherpesvirus 1 [1] = test: Antiviral activity against […] HSV1 KOS infected in African green monkey Vero cells assessed as inhibition of viral replication after 48 hrs by naphthol blue-black staining-based assay; assay type: functional, organism-based; conditions: for IC50: vero; for pIC50: Human alphaherpesvirus 1, KOS, Vero, 48 h, read-out: IC50
Human alphaherpesvirus 1 [2] = test: Antiviral activity against […] HSV1 KOS infected in African green monkey Vero cells assessed as inhibition of viral replication at 100 uM after 48 hrs by naphthol blue-black staining-based assay; assay type: functional; conditions: for inhibition at 100 µM: Human alphaherpesvirus 1, KOS
Trypanosoma cruzi [3] = test: Trypanocidal activity against Trypanosoma cruzi Tulahuen trypomastigotes infected in human THP1 cells assessed as growth inhibition after 48 hrs by chlorophenolred-beta-d-galactopyranoside/Nonidet P-40 reagent-based assay; assay type: functional
Trypanosoma cruzi [4] = test: Trypanocidal activity against Trypanosoma cruzi Tulahuen trypomastigotes infected in human THP1 cells assessed as growth inhibition at 50 uM after 48 hrs by chlorophenolred-beta-d-galactopyranoside/Nonidet P-40 reagent-based assay; assay type: functional; conditions: for inhibition of growth at 50 µM: THP-1, 48 h, read-out: GI
Leishmania amazonensis = test: Leishmanicidal activity against Leishmania amazonensis MHOM/BR/77/LTB0016 amastigotes infected in human THP1 cells assessed as growth inhibition at 50 uM after 48 hrs by chlorophenolred-beta-d-galactopyranoside/Nonidet P-40 reagent-based assay; assay type: functional; conditions: MHOM/BR/77/LTB0016, THP-1, 48 h, read-out: GI
[5] = Cytotoxicity against human A549 cells assessed as reduction in cell viability after 48 hrs by sulforhodamine B assay; assay type: cell-based
[6] = Selectivity index, ratio of CC50 for African green monkey Vero cells to IC50 for HSV1 KOS; assay type: toxicity; conditions: read-out: Ratio CC50/IC50
[7] = Cytotoxicity against human THP1 cells assessed as reduction in cell viability by MTT assay; assay type: cell-based; conditions: THP-1 cells
[8] = Cytotoxicity against human HCT8 cells assessed as reduction in cell viability after 48 hrs by sulforhodamine B assay; assay type: cell-based; conditions: HCT-8 cells
[9] = Cytotoxicity against African green monkey Vero cells assessed as reduction in cell viability after 48 hrs by sulforhodamine B assay; assay type: cell-based; conditions: chlorocebus sabaeus
[10] = Selectivity index, ratio of CC50 for human THP1 cells to G150 for Trypanosoma cruzi Tulahuen trypomastigotes; assay type: toxicity; conditions: THP-1 cells, read-out: Selectivity Index
Trypanosoma cruzi [11] = test: Trypanocidal activity against Trypanosoma cruzi Tulahuen trypomastigotes infected in human THP1 cells at 20 uM after 48 hrs by chlorophenolred-beta-d-galactopyranoside/Nonidet P-40 reagent-based assay; assay type: functional; conditions: THP-1, 48 h, read-out: GI

SMILES | IC50 (Human alphaherpesvirus 1 [1]) | inhibition (Human alphaherpesvirus 1 [2]) | GI50 (Trypanosoma cruzi [3]) | growth inhibition (GI) (Trypanosoma cruzi [4]) | inhibition of growth at 50 µM (Leishmania amazonensis) [%] | pIC50 (Human alphaherpesvirus 1 [1]) | inhibition at 100 µM (Human alphaherpesvirus 1 [2]) [%] | GI50 (Trypanosoma cruzi [3]; THP-1, 48 h) [µM] | inhibition of growth at 50 µM (Trypanosoma cruzi [4]) [%] | also measured
O=[N+]([O-])c1ccc(-c2cc(CNS(=O)(=O)c3ccc(Cl)cc3)on2)cc1 | Not Active | inactive | inactive | inactive | 2 |  |  |  |  | 
Cc1ccc(S(=O)(=O)NCc2cc(-c3ccccc3)no2)cc1 |  |  |  |  | 10.9 | < 4.00 | 25.3 | > 50 | 5.8 | 
O=S(=O)(NCc1cc(-c2ccccc2)no1)c1ccc(F)cc1 |  |  | inactive | inactive | 13.2 | < 4.00 | 40.2 |  |  | 
COc1ccc(-c2cc(CNS(=O)(=O)c3ccc(C)cc3)on2)cc1 |  |  | inactive | inactive | 2 | 4.02 | 65 |  |  | CC50 at 48 h [5]: > 500 µM; selectivity ratio [6]: > 3.4; CC50 [7]: > 500 µM; CC50 at 48 h [8]: > 500 µM; CC50 at 48 h [9]: ≥ 331 µM
O=C(Cn1ccnc1[N+](=O)[O-])NCc1ccccc1 [BENZNIDAZOLE] |  |  |  |  |  |  |  | 10.2 |  | selectivity ratio [10]: > 49.1; inhibition of growth at 20 µM (Trypanosoma cruzi [11]): 96.6%
Cc1ccc(S(=O)(=O)NCc2cc(-c3ccc([N+](=O)[O-])cc3)no2)cc1 | Not Active | inactive |  |  | 9.3 |  |  | > 50 | 9.8 | 
O=S(=O)(NCc1cc(-c2ccc3c(c2)OCO3)no1)c1ccc(F)cc1 |  |  | inactive | inactive | 12.8 | 3.76 | 70.1 |  |  | selectivity ratio [6]: > 2.9
COc1ccc(-c2cc(CNS(=O)(=O)c3ccc([N+](=O)[O-])cc3)on2)cc1OC | Not Active | inactive |  |  | 10.2 |  |  | > 50 | 53.9 | 
O=[N+]([O-])c1ccc(-c2cc(CNS(=O)(=O)c3ccc(F)cc3)on2)cc1 | Not Active | inactive |  |  | 15.7 |  |  | > 50 | 7.8 | 
COc1ccc(-c2cc(CNS(=O)(=O)c3ccc(C)cc3)on2)cc1OC | Not Active | inactive |  |  | 4.1 |  |  | > 50 | 25.6 | 
COc1ccc(-c2cc(CNS(=O)(=O)c3ccc(F)cc3)on2)cc1 |  |  |  |  | 14 | 4.06 | 100 | > 50 | 44.5 | selectivity ratio [6]: > 5.7
